Laboratory results taken from US20240043927A1, “METHOD FOR IDENTIFYING SUBSTANCE CAPABLE OF AFFECTING AGING” (ZHEJIANG BAISHOUKANGDI CO., LTD., priority 2019, published 2024).

Legend:
Zip11 [1] = test: Zip11 mRNA expression in human cells treated with vitamins; type: cell-based; conditions: Human HEK293 and HT1080 cells, treated 24 hours; vitamin B3 10, 50, 100 μM; vitamin B12 1, 10, 50 μM; vitamin C 10, 100, 500 μM
Description: Human HEK293 and HT1080 cells were treated for 24 hours respectively at different concentrations of vitamin B3 (10 μM, 50 μM, 100 μM), vitamin B12 (1 μM, 10 μM, 50 μM) and vitamin C (10 μM, 100 μM, 500 μM). The relative expression quantity of Zip11 mRNA was detected.

ZIP11 [2] = test: ZIP11 expression in liver of wild-type mice injected with concanavalin A (RT-PCR); type: in vivo, mouse; conditions: wild-type C57BL/6 mice, 10 mg/kg through the tail vein, after 18 hours
Description: The wild-type C57BL/6 mice were divided into two groups. An experimental group was injected with 10 mg/kg concanavalin (ConA) through the tail vein.

Compound	relative expression quantity of Zip11 mRNA (Zip11 [1])	expression level of ZIP11 in liver tissue (RT-PCR, β-actin as reference) (ZIP11 [2])
O=C(O)c1cccnc1 [vitamin B3]	increase the expression level of Zip11	–
O=C1O[C@H]([C@@H](O)CO)C(O)=C1O [vitamin C]	increase the expression level of Zip11	–
Concanavalin A [ConA]	–	decrease the level of ZIP11
vitamin B12	increase the expression level of Zip11	–
